Experimental data reported in patent US20260240817A1, “COMPOSITIONS AND METHODS FOR TREATING CHARCOT-MARIE-TOOTH DISEASE” (priority 2023, published 2026).
Entries after “also recorded” stand apart in the source; their conditions may differ.

What was measured:
mouse model of CMT1A = test: Stimulated EMG (CMAP decrement) in mouse model of CMT1A; format: in vivo
Method: Male and female mice (Jacson Laboratory Strain #:030052) approx. 6-7 months of age at time of study start were used. These genetically modified mice are used as a disease model to study Charcot Marie Tooth (CMT) disease type 1A (CMT1A).
The sodium salt of NMD670 was dissolved in phosphate buffered saline (PBS) to a dose volume of 1 mg/mL. The entire amount of dose-solution was then transferred to a vial labelled A or B (for blinding purposes). The vehicle control solution was PBS and this was transferred to a vial labelled A or B (for blinding purposes). Compound was dosed IP at a volume of 10 mL/kg, from a 1 mg/mL dose solution.
NMD670 or vehicle was administered by IP injection at a volume of 10 mL/kg from a 1 mg/mL dose solution while sedated in the EMG measurement set up. 10 to 15 minutes was allowed to elapse before next step was initiated.
Each mouse was tested prior to intervention with test article, and then tested after IP injection of 10 mg/kg NMD670 or vehicle (PBS). A washout period was then allowed (48 hours), and the mouse was subjected to the same test, but receiving the opposite treatment to that on the first day. All mice thus received both vehicle and NMD670, in a randomized order (FIG. 6).

WT mice = test: In situ force and CMAP of triceps surae on sciatic nerve stimulation, wild type; format: in vivo, mouse
From the text: (§1) Mice were removed from their housing on the day of experiment and sedated with isoflurane (2-3%) dissolved in oxygen (supplied in a mask placed around the mouth and nose (Microvent 1, Hallowell EMC)) and placed on a heated mat. Sedation was ensured by testing the reflexes of the front limbs by tweezing them with a set of tweezers. Temperature was monitored by rectal probe. When fully sedated the Achilles tendon was blotted, tied by cotton string to a force transducer (Grass instruments) and cut distal to the cotton string, to allow recording of force from muscle of the lower limb. To record compound muscle action potentials (CMAP), two small needle electrodes were placed subcutaneously, one over the belly of the triceps surae muscle, and one at the distal part close to the tendon. To allow stimulation of the sciatic nerve, two stimulation needle electrodes were inserted at the base of the tail, one on each side of the sciatic nerve. Optimal placement was tested by applying short pulses via the stimulation electrodes, and assessing the resulting force and CMAP. When a stable response was obtained, electrodes were secured with tape, and the animal was allowed to rest for 10 minutes.
(§2) After optimal set-up and rest, the following stimulation paradigm was initiated: Every 30 seconds the sciatic nerve was stimulated at 8-12 Volt by pulses of 0.1 ms duration at 12 Hz with 10 pulses (12 Hz protocol). This was repeated 9 times after which a single stimulation at 120 Hz for 1 s was made. The 12 Hz protocol was then again repeated 9 times followed a stimulation at 30 Hz for 1 s. This cycle was repeated throughout the experiments providing recordings of force and CMAP at 120 Hz and 30 Hz every 10th minute interspaced by 12 Hz protocols every 30 second. When 3 consecutive measurements of 120 Hz were similar, NMD670 was administered I.V. (8 mg/kg dissolved in phosphate buffered saline at 2 mg/mL), while the stimulation paradigm continued. Animals were monitored for 6 hours after injection of NMD670. Force and CMAP were measured and digitalized by an AD converter (CED, UK,) and analysed in “Signal 6” (Cambridge Electronic Designs, UK). When analysing force traces, the peak amplitude of each twitch peak at 12 and 30 Hz was measured, and the baseline subtracted. The force at 30 and 120 Hz was also quantified as a force-time integral, or area under the curve (AUC). The CMAP recordings were quantified as the peak-to-peak levels for each CMAP in every train. The peak heights or CMAP levels were then expressed as ratios relative to the first CMAP peak in the train e.g. forth peak relative to 1st peak (T4/T1) and 10th peak relative to 1st peak (T10/T1).

CMT2D Gars^P278KY mice = test: In situ force and CMAP of triceps surae on sciatic nerve stimulation, CMT2D model; format: in vivo, mouse
Method: CMT2D Gars^P278KY mice (Jackson laboratories, stock 17540) were used (Spauling et al. 2016). All handling and use of animals complied with Danish Animal Welfare regulations (licence 2017-15-0201-01223). Animals were fed ad libitum, kept at 12 h light/dark condition at 21° C. and observed daily.
as §1
The single fibre measurements of EPP was performed in animals aged 8 to 15 weeks, whilst the in situ stimulation protocol part was performed in animals 37 weeks of age, from the same litter.
as §2

[1] = Tablet dissolution (USP2 paddles, pH 6.8); format: physicochemical; settings: immediate release film-coated tablets; after a maximum of 60 minutes; USP2 paddles 75 RPM, 37° C., 900 ml pH 6.8
Method: Tablet dissolution was determined as follows. […] Dissolution Media pH 6.8 was prepared by dissolving 27.3g Na2HPO4·2H2O and 4.9 g Citric Acid in 1 L Milli-Q water. The pH was measured and adjusted if necessary to pH 6.8. 900 mL of dissolution media pH 6.8 was accurately transferred into each dissolution vessel. The apparatus was assembled, and the dissolution media was heated to 37° C.±0.5° C. The T=0 point was extracted from each vessel prior to dropping the tablets into the dissolution vessels. One tablet was gently dropped into each dissolution vessel, and rotation of the paddle was immediately started. Samples were taken that the sample extraction timepoints and analysed using the HPLC method.

[2] = Wild Type, after NMD670 (before 100)
[3] = Gars^P278KY mice, after injection of NMD670
[4] = Gars^P278KY mice, after injection of NMD670, not fully normalized
[5] = Gars^P278KY, after 8 mg/kg i.v. (before 100)

C[C@H](Oc1ccc(Br)cc1-c1ccon1)C(=O)O [NMD670, (2S)-2-[4-bromo-2-(1,2-oxazol-3-yl)phenoxy]propanoic acid]
CMAP decrement, NMD670 vs vehicle group after treatment (mouse model of CMT1A; 10 mg/kg IP, n=8): not significantly different | recovery of CMAP decrement after intervention (mouse model of CMT1A; 40 Hz, 10 mg/kg IP (sodium salt in PBS), vehicle 8.6): 15.2 % point | increase of ratio of the 5th and 1st CMAP peaks (WT mice; WT mice after injection of NMD670, 30 and 80 Hz stimulations as printed): not significantly different | Twitch force relative to BW (WT mice; Wild Type, after NMD670 (before 1.08 ± 0.01)): 1.06 ± 0.02 | Twitch force (WT mice; Wild Type, after NMD670 (before 21.6 ± 1.3)): 22.2 ± 2.3 g | Force 12 Hz Ratios T4/T1 (WT mice; Wild Type, after NMD670 (before 96.6 ± 1.3)): 97.7 ± 06% | Force 12 Hz Ratios T10/T1 (WT mice; Wild Type, after NMD670 (before 97.3 ± 0.6)): 99.2 ± 0.3% | Force 30 Hz AUC (% of initial) (WT mice; [2]): 102.9 ± 1.9 % of initial | Force 120 Hz AUC (% of initial) (WT mice; [2]): 100.7 ± 2.7 % of initial | 12 Hz Ratios CMAP T4/T1 (WT mice; Wild Type, after NMD670 (before 102.2 ± 0.9)): 103.1 ± 0.2 | 12 Hz Ratios CMAP T10/T1 (WT mice; Wild Type, after NMD670 (before 102.8 ± 0.1)): 102.8 ± 2.2 | EMG (CMAP) 30 Hz 5/1 (WT mice; Wild Type, after NMD670 (before 105.8 ± 3.1)): 119.0 ± 11.6 | EMG (CMAP) 120 Hz 5/1 (WT mice; Wild Type, after NMD670 (before 110.2 ± 6.5)): 123.5 ± 20.6 | force, CMAP and relative force peaks (T4 or T10/T1) (CMT2D Gars^P278KY mice; Gars^P278KY mice, after 8 mg/kg NMD670 i.v., 12, 30, 120 Hz stimulation): less decrease in amplitudes; also recorded: improved; also recorded: increase | T4/T1 and T10/T1 ratios of twitch force (CMT2D Gars^P278KY mice; [3]): normalization | increase in absolute twitch force (CMT2D Gars^P278KY mice; [3]): 25% | increase of force during 30 Hz stimulation (CMT2D Gars^P278KY mice; [4]): 21% | increase of force during 120 Hz stimulation (CMT2D Gars^P278KY mice; [4]): 30% | Twitch force (CMT2D Gars^P278KY mice; Gars^P278KY, after 8 mg/kg NMD670 i.v. (before 6.06 ± 0.8)): 7.5 ± 1.1 g | Twitch force relative to BW (CMT2D Gars^P278KY mice; Gars^P278KY, after 8 mg/kg i.v. (before 0.42 ± 0.05)): 0.51 ± 0.05 | 12 Hz Ratios CMAP T10/T1 (CMT2D Gars^P278KY mice; Gars^P278KY, after 8 mg/kg i.v. (before 63.5 ± 4.91)): 76.1 ± 4.37 | 12 Hz Ratios CMAP T4/T1 (CMT2D Gars^P278KY mice; Gars^P278KY, after 8 mg/kg i.v. (before 75.5 ± 2.8)): 86.3 ± 2.44 | Force 12 Hz Ratios T10/T1 (CMT2D Gars^P278KY mice; Gars^P278KY, after 8 mg/kg i.v. (before 82.0 ± 6.0)): 93.8 ± 5.7% | EMG (CMAP) 30 Hz 5/1 (CMT2D Gars^P278KY mice; Gars^P278KY, after 8 mg/kg i.v. (before 82.4 ± 3.3)): 95.3 ± 2.4 | EMG (CMAP) 120 Hz 5/1 (CMT2D Gars^P278KY mice; Gars^P278KY, after 8 mg/kg i.v. (before 83.8 ± 13.9)): 102.0 ± 4.3 | Force 12 Hz Ratios T4/T1 (CMT2D Gars^P278KY mice; Gars^P278KY, after 8 mg/kg i.v. (before 88.2 ± 5.1)): 97.8 ± 5.0% | Force 30 Hz AUC (% of initial) (CMT2D Gars^P278KY mice; [5]): 124.1 ± 3.7 % of initial | Force 120 Hz AUC (% of initial) (CMT2D Gars^P278KY mice; [5]): 136.7 ± 29.9 % of initial | NMD670 released from the tablets [1]: Not less than 80%
